From patent US10597674B2, “HPPD variants and methods of use” (BASF Agricultural Solutions Seed, US LLC, priority 2015, dated 2020)

Key:
[1] = test system: E. coli cells expressing an HPPD polypeptide; experiment: Brown color bioassay in liquid culture, residual brown color formation (BCF), OD440 after 96 hours; assay type: cell-based
Method in brief: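 E. coli expressing HPPD variants were grown at 30 degrees Celsius from OD600 0.3-0.5 in LB with 5 mM HPP, with or without herbicide (e.g. Cmpd. 1, 1000 μM). After 96 hours, supernatant OD440 was measured; residual brown colour formation compares pigment with and without inhibitor.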

[2] = test system: transgenic T1 soybean events; experiment: Field trials of T1 soybean events, leaf damage eight days after application; assay type: in vivo; conditions: wild-type or segregated T1 soybean plants without tolerant polypeptide; 210 g/ha isoxaflutole or 150 g/ha Cmpd. 1; eight days
Method in brief: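 T1 soybean events carrying the HPPD inhibitor tolerant polypeptide, field-grown and sprayed with isoxaflutole 210 g/ha or Cmpd 150 g/ha. Leaf damage scored eight days after application; good tolerance defined as ≤15% damaged leaf area, reported as event frequency.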

In the case of `CSc1c(C(F)(F)F)ccc(C(=O)Nc2nnnn2C)c1Cl` [Cmpd. 1, 2-chloro-3-(methylsulfanyl)-N-(1-methyl-1H-tetrazol-5-yl)-4-(trifluoromethyl)benzamide, reference compound], the “Control BCF OD440nm” value ([1]; brown color formation in absence of Cmpd. 1, culture supernatant after 96 hours, 5 mM HPP) was 2.66, the “Residual BCF OD440nm [%]” value ([1]; brown color formation with Cmpd. 1 (1000 μM) relative to without, after 96 hours) was 15% and the leaf damage [2] was 100%.
